Measured values taken from US20130052214A1, “IDENTIFICATION OF A PEPTIDE(S) THAT INDUCES AUTOIMMUNE ANTERIOR UVEITIS” (BOARD OF TRUSTEES OF THE UNIVERSITY OF ARKANSAS, priority 2011, published 2013).

System: Lewis rats
Experiment: Induction of experimental autoimmune anterior uveitis (EAAU) by hind footpad immunization with MAA-derived peptides in CFA
Format: in vivo, rat
Conditions: for severity of EAAU, clinical and histopathologic examination: 250 μg peptide in CFA compared with 75 μg bovine MAA in CFA, histology at day 17 and day 20 post-immunization; for induction of EAAU: single-dose hind footpad immunization, emulsified 1:1 in CFA, 250 μg peptide or 75 μg bovine MAA, examined daily day 7 to 30 post-immunization
Method: Peptides having the sequence of SEQ ID NO. 1 and SEQ ID NO. 2 were solubilized in sterile phosphate buffered saline (PBS) before use. Lewis rats were immunized separately with 100 μl of stable emulsion containing 250 μg of peptide SEQ ID NO. 1 (n=9 rats) or peptide SEQ ID NO. 2 (n=9 rats) emulsified (1:1) in complete Freund's adjuvant (CFA) using a single-dose induction protocol in the hind footpad to induce EAAU. Control animals (n=9 rats) received 75 μg of bovine melanin associated antigen (MAA) emulsified (1:1) in CFA. Animals in each group were examined daily between day 7 and 30, post-immunization, to determine the time of onset and progression of clinical disease in EAAU. Two animals from each group were sacrificed at day 17 and day 20 post-immunization and eyes were harvested for histological analysis to determine the severity of disease and degree of inflammation. Lewis rats injected with MAA peptide SEQ ID NO. 1 or MAA peptide SEQ ID NO. […] 1 (FIGS. 1A and 1D) and peptide SEQ ID NO. […] As shown in all of the Figs., the iris (I) and the ciliary body (CB) were infiltrated with inflammatory cells.

Sequence	severity of EAAU, clinical and histopathologic examination	induction of EAAU
GEPGNIGFPGPKGPSGDPGKAGEKG (listed as Bos taurus) [SEQ ID NO. 1, truncated peptide derived from Melanin Associated Antigen (MAA)]	less severe than that induced by bovine MAA	developed EAAU
HAGLAGARGAPGPDGNNGAQGPPGL (listed as Bos taurus) [SEQ ID NO. 2, truncated peptide derived from Melanin Associated Antigen (MAA)]	less severe than that induced by bovine MAA	developed EAAU
